Reference: US10688093B2, “Methods, compositions, and uses of novel Fyn kinase inhibitors” (priority 2015, dated 2020)

The molecules below were run against full-length recombinant human FYN A (Homo sapiens (Human), UniProt P06241) (assay: ADP-Glo Kinase Assay of FYN kinase inhibition). Conditions: primary screen, initial compounds.
Assay type: biochemical
In short: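 GST-tagged full-length FYN A (baculovirus, Sf9) at 3 pg preincubated 30 min RT with compound (10-point 3-fold series from 10 μM) in Tris pH 7.5/MgCl2 buffer. 12-mer tyrosine peptide plus 12.5 pmol ATP added, 90 min RT; ADP measured by ADP-Glo luminescence, IC50 from dose-response.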

Sequence of full-length recombinant human FYN A (P06241 whole entry): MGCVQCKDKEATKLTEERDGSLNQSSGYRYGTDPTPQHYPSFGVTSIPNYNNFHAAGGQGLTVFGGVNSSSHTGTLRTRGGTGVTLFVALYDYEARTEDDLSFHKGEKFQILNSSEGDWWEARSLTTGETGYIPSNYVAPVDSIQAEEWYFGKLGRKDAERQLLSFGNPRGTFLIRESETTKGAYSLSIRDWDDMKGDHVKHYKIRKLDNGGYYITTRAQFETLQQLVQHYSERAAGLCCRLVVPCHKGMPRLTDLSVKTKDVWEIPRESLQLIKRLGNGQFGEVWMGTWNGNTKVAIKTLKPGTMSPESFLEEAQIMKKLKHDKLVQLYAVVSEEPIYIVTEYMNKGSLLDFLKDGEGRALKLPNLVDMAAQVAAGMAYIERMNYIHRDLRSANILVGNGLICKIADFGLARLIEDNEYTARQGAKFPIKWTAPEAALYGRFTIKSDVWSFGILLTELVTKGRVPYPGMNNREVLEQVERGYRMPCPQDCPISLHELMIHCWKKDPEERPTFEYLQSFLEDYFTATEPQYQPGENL

IC50 [nM] | SMILES
5690 | c1csc(-c2cn3c(-c4ccncc4)cnc3cn2)c1 [Compound 198, 3-(4-pyridyl)-6-(2-thienyl)imidazo [1,2-a]pyrazine]
2700 | Oc1ccc(-c2cn3c(-c4ccsc4)cnc3cn2)cc1 [Compound 199, 4-[3-(3-thienyl)imidazo [1,2-a]pyrazin-6-yl]phenol]
2250 | c1csc(-c2cn3c(-c4ccsc4)cnc3cn2)c1 [Compound 200, 6-(2-thienyl)-3-(3-thienyl)imidazo [1,2-a]pyrazine]
2330 | CC(=O)Nc1cccc(-c2cn3c(-c4ccsc4)cnc3cn2)c1 [Compound 201, N-[3-[3-(3-thienyl)imidazo [1,2-a]pyrazin-6-yl]phenyl] acetamide]
3320 | CS(=O)(=O)Nc1cccc(-c2cn3c(-c4ccsc4)cnc3cn2)c1 [Compound 202, N-[3-[3-(3-thienyl)imidazo [1,2-a]pyrazin-6-yl]phenyl] methane-sulfonamide]
6250 | c1coc(-c2cn3c(-c4ccsc4)cnc3cn2)c1 [Compound 203, 6-(2-furyl)-3-(3-thienyl)imidazo [1,2-a]pyrazine]
6550 | Oc1cccc(-c2cnc3cnc(-c4ccccc4)cn23)c1 [Compound 204, 3-(6-phenylimidazo [1,2-a]pyrazin-3-yl)phenol]
1580 | NC(=O)c1cccc(-c2cn3c(-c4cccc(O)c4)cnc3cn2)c1 [Compound 205, 3-[3-(3-hydroxyphenyl)imidazo[1,2-a]pyrazin-6-yl]benzamide]
2730 | Oc1ccc(-c2cnc3cnc(-c4cccnc4)cn23)cc1 [Compound 206, 4-[6-(3-pyridyl)imidazo [1,2-a]pyrazin-3-yl]phenol]
4720 | OCc1ccc(-c2cn3c(-c4ccc(Oc5ccccc5)cc4)cnc3cn2)cc1 [Compound 207]

Same assay, conditions: secondary screen, re-synthesized and expanded compounds

SMILES | IC50 [nM]
COc1cncc(-c2cnc3sc(NCc4cccs4)nn23)c1 [BF000714968, 5-(5-methoxy-3-pyridyl)-N-(2-thienyl-methyl)-imidazo[2,1-b][1,3,4]-thiadiazol-2-amine] | 437
COc1cncc(-c2cnc3sc(NCc4ccc5c(c4)OCO5)nn23)c1 [BF000714981, N-(1,3-benzodioxol-5-ylmethyl)-5-(5-methoxy-3-pyridyl)-imidazo[2,1-b][1,3,4]-thiadiazol-2-amine] | 289
CN(C)C(=O)c1cccc(-c2cnc3sc(NCC4CCOCC4)nn23)c1 [BF000715802, N,N-dimethyl-3-[2-(tetra-hydropyran-4-ylmethyl-amino)-imidazo[2,1-b][1,3,4]-thiadiazol-5-yl]benzamide] | 1360
COc1ccc(-c2cnc3sc(NC4CCC(O)CC4)nn23)cc1OC (stereo not shown) [BF000717406, 4-[[5-(3,4-dimethoxy-phenyl)-imidazo[2,1-b][1,3,4]-thiadiazol-2-yl]amino]-cyclohexanol] | 440
CN(C)C(=O)c1cccc(-c2cnc3sc(NC4CCC(O)CC4)nn23)c1 (stereo not shown) [BF000717418, 3-[2-[(4-hydroxy-cyclohexyl)-amino]-imidazo[2,1-b][1,3,4]-thiadiazol-5-yl]-N,N-dimethyl-benzamide] | 288
COc1cc(-c2cnc3sc(NCC4CCOCC4)nn23)ccc1O [BF000717555, 2-methoxy-4-[2-(tetrahydro-pyran-4-ylmethyl-amino)-imidazo[2,1-b][1,3,4]-thiadiazol-5-yl]phenol] | 710
OCCCNc1ccc2ncc(-c3ccncc3)n2n1 [BF000722253, 3-[[3-(4-pyridyl)-imidazo[1,2-b]pyridazin-6-yl]amino]-propan-1-ol] | 538
COc1cc(-c2ccc3ncc(-c4cccc(NC(C)=O)c4)n3n2)ccc1O [BF000726183, N-(3-[6-(4-hydroxy-3-methoxy-phenyl)-imidazo[1,2-b]pyridazin-3-yl]phenyl]-acatamide] | 167
OCc1cccc(-c2cnc3ccc(-c4cccc(O)c4)nn23)c1 [BF000726195] | 1170
COc1ccc(-c2ccc3ncc(-c4cccc(NC(C)=O)c4)n3n2)cc1OC [BF000726345, N-[3-[6-(3,4-dimethoxy-phenyl)-imidazo[1,2-a]pyridazin-3-yl]phenyl]-acatamide] | 313
CC(=O)Nc1cccc(-c2ccc3ncc(-c4cccc(NC(C)=O)c4)n3n2)c1 [BF000726346, N-[3-[3-(3-acetamido-phenyl)-imidazo[1,2-b]pyridazin-6-yl]phenyl]-acetamide] | 648
Oc1cccc(-c2cnc3ccc(-c4ccncc4)nn23)c1 [BF000726352, 3-[6-(4-pyridyl)-imidazo[1,2-b]pyridazin-3-yl]phenol] | 342
OCc1cccc(-c2cnc3ccc(-c4ccncc4)nn23)c1 [BF000726364, [3-[6-(4-pyridyl)-imidpzo[1,2-b]pyridazin-3-yl]phenyl]-methanol] | 973
COc1ccc(-c2ccc3ncc(-c4cccc(CO)c4)n3n2)cc1OC [BF000726366, [3-[6-(3,4-dimethoxy-phenyl)-imidazo[1,2-b]pyridazin-3-yl]phenyl]-methanol] | 893
CC(=O)Nc1cccc(-c2ccc3ncc(-c4cccc(CO)c4)n3n2)c1 [BF000726367, N-[3-[3-[3-(hydroxy-methyl)phenyl]-imidazo[1,2-b]pyridazin-6-yl]phenyl]-acetamide] | 1520
COc1cc(-c2cnc3ccc(-c4ccc(OC)c(OC)c4)nn23)ccc1O [BF000726453, 4-[6-(3,4-dimethoxy-phenyl)-imidazo[l,2-b]pyridazin-3-yl]-2-methoxy-phenol] | 39.4
COc1cc(-c2cnc3ccc(-c4cccc(NC(C)=O)c4)nn23)ccc1O [BF000726454, N-[3-[3-(4-hydroxy-3-methoxy-phenyl)-imidazo[1,2-b]pyridazin-6-yl]phenyl]-acetamide] | 104
CC(=O)c1cccc(-c2cnc3ccc(-c4cccc(CO)c4)nn23)c1 [BF000726471, 1-[3-[6-[3-(hydroxy-methyl)-phenyl]-imidazo[1,2-b]pyridazin-3-yl]phenyl]-ethanone] | 291

SMILES | IC50 [nM]
COc1cc(-c2cnc3ccc(-c4ccc(CO)cc4)nn23)ccc1O [BF000726486, 4-[6-[4-(hydroxy-methyl)-phenyl]-imidazo[1,2-b]pyridazin-3-yl]-2-methoxy-phenol] | 61.8
COc1cc(-c2cnc3ccc(-c4cccc(CO)c4)nn23)ccc1O [BF000726487, 4-[6-[3-(hydroxy-methyl)-phenyl]-imidazo[1,2-b]pyridazin-3-yl]-2-methoxy-phenol] | 63
COc1cncc(-c2cnc3sc(NC4CCC(O)CC4)nn23)c1 (stereo not shown) [BF000802724, 4-[[5-(5-methoxy-3-pyridyl)-imidazo[2,1-b][1,3,4]-thiadiazol-2-yl]amino]-cyclohexanol] | 301
CN(C)CCCNC(=O)c1ccc(-c2cn3c(-c4ccc(Oc5ccccc5)cc4)cnc3cn2)cc1 [BF000816927, N-[3-(dimethyl-amino)-propyl]-4-[3-(4-phenoxy-phenyl)imidazo[1,2-a]pyrazin-6-yl]benzamide] | 247
CC(C)[C@@H](CO)Nc1ccc2ncc(-c3ccncc3)n2n1 [BF000817097, (2S)-3-methyl-2-[[3-(4-pyridyl)-imidazo[1,2-b]pyridazin-6-yl]amino]-butan-1-ol] | 631
CC(=O)c1cccc(-c2cnc3ccc(NCCCO)nn23)c1 [BF000817098, 1-[3-[6-(3-hydroxy-propyl-amino)-imdazo[1,2-b]pyridazin-3-yl]phenyl]-ethanone] | 645
c1cc(-c2cnc3ccc(NC4CCOCC4)nn23)ccn1 [BF000817099, 3-(4-pyridyl)-N-tetrahydro-pyran-4-yl-imidazo[1,2-b]pyridazin-6-amine] | 270
CC(=O)Nc1cccc(-c2cnc3ccc(-c4ccncc4)nn23)c1 [BF000817142, N-[3-[6-(4-pyridyl)-imidazo[1,2-b]pyridazin-3-yl]phenyl]-acetamide] | 741
COc1cc(-c2cnc3ccc(-c4ccncc4)nn23)ccc1O [BF000817169, 2-methoxy-4-[6-(4-pyridyl)-imidazo[1,2-b]pyridazin-3-yl]phenol] | 79.4
c1ccc(CNc2ccc3ncc(-c4ccncc4)n3n2)nc1 [BF000817170, 3-(4-pyridyl)-N-(2-pyridyl-methyl)-imidazo[1,2-b]pyridazin-6-amine] | 170
COc1cc(-c2cnc(N)c(-c3cc(OC)c(OC)c(OC)c3)c2)cc(OC)c1OC [BF000817175, 3,5-bis(3,4,5-trimethoxy-phenyl)-pyridin-2-amine] | 85.4
COc1cc(-c2cc(-c3ccc(N4CCN(C(C)C)CC4)cc3)cnc2N)ccc1O [BF000817185] | 78.1
COc1cc(-c2ccc3ncc(-c4ccc(O)c(OC)c4)n3n2)ccc1O [BF000817186, 4-[3-(4-hydroxy-3-methoxy-phenyl)-imidazo[1,2-b]pyridazin-6-yl]-2-methoxy-phenol] | 29.4
OCc1cccc(-c2ccc3ncc(-c4cccc(CO)c4)n3n2)c1 [BF000817188, [3-[3-[3-(hydroxy-methyl)-phenyl]-imidazo[1,2-b]pyridazin-6-yl]phenyl]-methanol] | 828
COc1ccc(-c2cnc3sc(NCC4CCOCC4)nn23)cc1OC [BF000817208, 5-(3,4-dimethoxy-phenyl)-N-(tetra-hydropyran-4-ylmethyl)-imidazo[2,1-b][1,3,4]-thiadiazol-2-amine] | 1030
CC(=O)Nc1cccc(-c2cnc3ccc(-c4cccc(CO)c4)nn23)c1 [BF000817329, N-[3-[6-[3-(hydroxy-methyl)-phenyl]-imidazo[1,2-b]pyridazin-3-yl]phenyl]-acetamide] | 435
COc1cc(-c2cc(-c3ccc(N4CCOCC4)cc3)cnc2N)ccc1O [BF000817413, 4-[2-amino-5-(4-morpholino-phenyl)-3-pyridyl]-2-methoxy-phenol] | 212
COc1ccc(-c2cnc(N)c(-c3ccc(N4CCN(C)CC4)cc3)c2)cc1O [BF000817418, 5-[6-amino-5-[4-(4-methyl-piperazin-1-yl)phenyl]-3-pyridyl]-2-methoxy-phenol] | 9650
